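96-well plates; 48 h exposure; 5 concentrations. Endpoints by linear interpolation between flanking doses. Not reached: highest tested concentration assigned. At the GI50, growth is halved. TGI is the concentration that stops growth completely.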
Legend:
Assay in all cases: NCI anticancer screen, dose series, 48 h
U251 CNS = system: U251 CNS
SF-268 CNS = system: SF-268 CNS
786-0 renal = system: 786-0 renal
IGROV1 ovarian = system: IGROV1 ovarian
SK-MEL-5 melanoma = system: SK-MEL-5 melanoma
KM12 colon = system: KM12 colon
NCI-H522 lung = system: NCI-H522 lung
OVCAR-8 ovarian = system: OVCAR-8 ovarian
OVCAR-3 ovarian = system: OVCAR-3 ovarian
HOP-62 NSCLC = system: HOP-62 NSCLC
UO-31 renal = system: UO-31 renal
M14 melanoma = system: M14 melanoma
OVCAR-4 ovarian = system: OVCAR-4 ovarian
RXF 393 renal = system: RXF 393 renal
HL-60(TB) leukemia = system: HL-60(TB) leukemia
MCF7 breast = system: MCF7 breast
NCI-H23 lung = system: NCI-H23 lung
TK-10 renal = system: TK-10 renal
MDA-MB-231 breast = system: MDA-MB-231 breast
A549 NSCLC = system: A549 NSCLC
NCI-H226 lung = system: NCI-H226 lung
SK-OV-3 ovarian = system: SK-OV-3 ovarian
EKVX NSCLC = system: EKVX NSCLC
SNB-19 CNS = system: SNB-19 CNS
A498 renal = system: A498 renal
CCRF-CEM leukemia = system: CCRF-CEM leukemia
HT29 colon = system: HT29 colon
PC-3 prostate = system: PC-3 prostate
MALME-3M melanoma = system: MALME-3M melanoma
LOX IMVI melanoma = system: LOX IMVI melanoma
UACC-62 melanoma = system: UACC-62 melanoma
T-47D breast = system: T-47D breast
CAKI-1 renal = system: CAKI-1 renal
SR leukemia = system: SR leukemia
HCC-2998 colon = system: HCC-2998 colon
MDA-MB-435 = system: MDA-MB-435
NCI/ADR-RES ovarian = system: NCI/ADR-RES ovarian
HOP-92 NSCLC = system: HOP-92 NSCLC
HCT-116 colon = system: HCT-116 colon
COLO 205 colon = system: COLO 205 colon
SNB-75 CNS = system: SNB-75 CNS
HCT-15 colon = system: HCT-15 colon
BT-549 breast = system: BT-549 breast
SN12C renal = system: SN12C renal
SK-MEL-28 melanoma = system: SK-MEL-28 melanoma
SW-620 colon = system: SW-620 colon
SK-MEL-2 melanoma = system: SK-MEL-2 melanoma
NCI-H460 lung = system: NCI-H460 lung
MOLT-4 leukemia = system: MOLT-4 leukemia
RPMI-8226 leukemia = system: RPMI-8226 leukemia
ACHN renal = system: ACHN renal
OVCAR-5 ovarian = system: OVCAR-5 ovarian
SF-295 CNS = system: SF-295 CNS
K-562 leukemia = system: K-562 leukemia
UACC-257 melanoma = system: UACC-257 melanoma

CC[C@]12C=CCN3CC[C@]4(C(=C(C(=O)OC)C1)Nc1cc(OC)c(OC(C)=O)cc14)[C@@H]32
GI50 (U251 CNS): 386 nM | TGI (U251 CNS): 12000 nM | GI50 (SF-268 CNS): 399 nM | TGI (SF-268 CNS): 13200 nM | GI50 (786-0 renal): 318 nM | TGI (786-0 renal): 10000 nM | GI50 (IGROV1 ovarian): 473 nM | TGI (IGROV1 ovarian): 20400 nM | GI50 (SK-MEL-5 melanoma): 209 nM | TGI (SK-MEL-5 melanoma): 481 nM | GI50 (KM12 colon): 303 nM | TGI (KM12 colon): 2640 nM | GI50 (NCI-H522 lung): 81.9 nM | TGI (NCI-H522 lung): 1040 nM | GI50 (OVCAR-8 ovarian): 407 nM | TGI (OVCAR-8 ovarian): > 100000 nM | GI50 (OVCAR-3 ovarian): 225 nM | TGI (OVCAR-3 ovarian): 602 nM | GI50 (HOP-62 NSCLC): 400 nM | TGI (HOP-62 NSCLC): 14100 nM | GI50 (UO-31 renal): 483 nM | TGI (UO-31 renal): 5600 nM | GI50 (M14 melanoma): 181 nM | TGI (M14 melanoma): 684 nM | GI50 (OVCAR-4 ovarian): 446 nM | TGI (OVCAR-4 ovarian): 17500 nM | GI50 (RXF 393 renal): 389 nM | TGI (RXF 393 renal): 8880 nM | GI50 (HL-60(TB) leukemia): 184 nM | TGI (HL-60(TB) leukemia): 654 nM | GI50 (MCF7 breast): 238 nM | TGI (MCF7 breast): 14400 nM | GI50 (NCI-H23 lung): 395 nM | TGI (NCI-H23 lung): 18800 nM | GI50 (TK-10 renal): 1020 nM | TGI (TK-10 renal): 7510 nM | GI50 (MDA-MB-231 breast): 389 nM | TGI (MDA-MB-231 breast): 14500 nM | GI50 (A549 NSCLC): 397 nM | TGI (A549 NSCLC): 19000 nM | GI50 (NCI-H226 lung): 917 nM | TGI (NCI-H226 lung): 21900 nM | GI50 (SK-OV-3 ovarian): 325 nM | TGI (SK-OV-3 ovarian): 12500 nM | GI50 (EKVX NSCLC): 625 nM | TGI (EKVX NSCLC): 19300 nM | GI50 (SNB-19 CNS): 591 nM | TGI (SNB-19 CNS): 21500 nM | GI50 (A498 renal): 133 nM | TGI (A498 renal): 718 nM | GI50 (CCRF-CEM leukemia): 380 nM | TGI (CCRF-CEM leukemia): 1860 nM | GI50 (HT29 colon): 1860 nM | TGI (HT29 colon): 11000 nM | GI50 (PC-3 prostate): 384 nM | TGI (PC-3 prostate): 15200 nM | GI50 (MALME-3M melanoma): 1420 nM | TGI (MALME-3M melanoma): 16100 nM | GI50 (LOX IMVI melanoma): 254 nM | TGI (LOX IMVI melanoma): 1270 nM | GI50 (UACC-62 melanoma): 326 nM | TGI (UACC-62 melanoma): 3080 nM | GI50 (T-47D breast): 1420 nM | TGI (T-47D breast): 17800 nM | GI50 (CAKI-1 renal): 503 nM | TGI (CAKI-1 renal): 15600 nM | GI50 (SR leukemia): 164 nM | TGI (SR leukemia): 11200 nM | GI50 (HCC-2998 colon): 416 nM | TGI (HCC-2998 colon): 6790 nM | GI50 (MDA-MB-435): 100 nM | TGI (MDA-MB-435): 319 nM | GI50 (NCI/ADR-RES ovarian): 339 nM | TGI (NCI/ADR-RES ovarian): 89900 nM | GI50 (HOP-92 NSCLC): 247 nM | TGI (HOP-92 NSCLC): 10300 nM | GI50 (HCT-116 colon): 275 nM | TGI (HCT-116 colon): 1380 nM | GI50 (COLO 205 colon): 769 nM | TGI (COLO 205 colon): 4520 nM | GI50 (SNB-75 CNS): 308 nM | TGI (SNB-75 CNS): 21000 nM | GI50 (HCT-15 colon): 310 nM | TGI (HCT-15 colon): 1560 nM | GI50 (BT-549 breast): 244 nM | TGI (BT-549 breast): 674 nM | GI50 (SN12C renal): 530 nM | TGI (SN12C renal): 14800 nM | GI50 (SK-MEL-28 melanoma): 1620 nM | TGI (SK-MEL-28 melanoma): 12500 nM | GI50 (SW-620 colon): 319 nM | TGI (SW-620 colon): 10500 nM | GI50 (SK-MEL-2 melanoma): 689 nM | TGI (SK-MEL-2 melanoma): 23000 nM | GI50 (NCI-H460 lung): 360 nM | TGI (NCI-H460 lung): 11600 nM | GI50 (MOLT-4 leukemia): 383 nM | TGI (MOLT-4 leukemia): 14900 nM | GI50 (RPMI-8226 leukemia): 478 nM | TGI (RPMI-8226 leukemia): 12300 nM | GI50 (ACHN renal): 176 nM | TGI (ACHN renal): 2620 nM | GI50 (OVCAR-5 ovarian): 719 nM | TGI (OVCAR-5 ovarian): 16200 nM | GI50 (SF-295 CNS): 377 nM | TGI (SF-295 CNS): 14600 nM | GI50 (K-562 leukemia): 274 nM | TGI (K-562 leukemia): 15400 nM | GI50 (UACC-257 melanoma): 1970 nM | TGI (UACC-257 melanoma): 17500 nM

From PubChem BioAssay (NCI)
